From US20240025875A1, “A COMPOUND AS A THYROID HORMONE BETA RECEPTOR AGONIST AND USE THEREOF” (SUNSHINE LAKE PHARMA CO., LTD., priority 2020, published 2024)

Tests used:
TRα = biological target: T1, TRα (Homo sapiens, UniProt P10827); assay: LanthaScreen TR-FRET Thyroid Receptor alfa Coactivator Assay (in vitro binding activity); settings: TR alfa-LBD
T1 construct: 5 μL of 4×TR beta/alfa-LBD; purchased Invitrogen PV4687
Procedure: (§1) 2. Detection of the Binding Activity of the Compound of the Present Invention to TRα or TRβ In Vitro
(§2) Test Materials • LanthaScreen TR-FRET Thyroid Receptor beta Coactivator Assay kit was purchased from Invitrogen, Cat. No. PV4686; • LanthaScreen TR-FRET Thyroid Receptor alfa Coactivator Assay kit was purchased from Invitrogen, Cat. No. PV4687.
(§3) The method was experimented with LanthaScreen TR-FRET Thyroid Receptor beta/alfa Coactivator Assay kit. The test compound was dissolved in DMSO and diluted 3 times to a total of 10 concentrations, and then diluted with TR-FRET Coregulator Buffer C in the kit to form a solution containing 2% DMSO, 10 μL of the solution containing 2% DMSO was taken into a 384-well plate, then 5 μL of 4×TR beta/alfa-LBD, 5 μL of a mixture containing 0.4 μM fluorescein-SRC2-2 and 8 nM Tb anti-GST antibody were added into each well, mixed thoroughly, and incubated at room temperature for 1 h in the dark. After 1 h, BMG LABTECH's PHERAstar FSX microplate reader was used to read the fluorescence value (RFU) at […]. The TR-FRET ratio was calculated by dividing the emission signal at 520 nm by the emission signal at 495 nm. Graph Pad Prism 5 software was used to draw the curve and calculate the EC50 value. The in vitro binding activity test results of some of the compounds of the examples of the present invention are shown in Table 1 below.

TRβ = biological target: T2, TRβ (Homo sapiens, UniProt P10828); assay: LanthaScreen TR-FRET Thyroid Receptor beta Coactivator Assay (in vitro binding activity); settings: TR beta-LBD
T2 construct: 5 μL of 4×TR beta/alfa-LBD; purchased Invitrogen PV4686
T2 sequence (P10828 217-461 limits assumed): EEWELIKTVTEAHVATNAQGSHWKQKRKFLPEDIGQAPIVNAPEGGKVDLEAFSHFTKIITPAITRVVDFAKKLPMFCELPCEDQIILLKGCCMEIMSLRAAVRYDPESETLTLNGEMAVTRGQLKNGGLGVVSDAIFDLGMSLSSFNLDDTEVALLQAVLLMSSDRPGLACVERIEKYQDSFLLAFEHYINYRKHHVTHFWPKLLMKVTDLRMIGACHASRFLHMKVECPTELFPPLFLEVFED
Procedure: as §1, §2, §3

T1 sequence (P10827 163-410 isoform P10827-2 limits assumed, other chains not shown): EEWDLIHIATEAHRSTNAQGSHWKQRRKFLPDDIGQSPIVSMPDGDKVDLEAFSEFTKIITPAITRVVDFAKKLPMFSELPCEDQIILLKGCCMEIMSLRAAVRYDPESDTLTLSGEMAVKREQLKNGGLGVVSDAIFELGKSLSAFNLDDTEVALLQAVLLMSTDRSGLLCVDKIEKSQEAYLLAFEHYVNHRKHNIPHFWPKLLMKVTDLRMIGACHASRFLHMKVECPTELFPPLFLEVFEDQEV

| Compound | EC50 (TRα) | EC50 (TRβ) |
| --- | --- | --- |
| N#Cc1nn(-c2cc(Cl)c(Oc3ccc4c(c3)CCNC4=O)c(Cl)c2)c(=O)[nH]c1=O [Example 1, 2-(3,5-dichloro-4-((1-oxo-1,2,3,4-tetrahydroisoquinolin-6-yl)oxy)phenyl)-3,5-dioxo-2,3,4,5-tetrahydro-1,2,4-triazine-6-carbonitrile] | > 100 µM | 0.26 µM |
| CN1CCc2cc(Oc3c(Cl)cc(-n4nc(C#N)c(=O)[nH]c4=O)cc3Cl)ccc2C1=O [Example 2, 2-(3,5-dichloro-4-((2-methyl-1-oxo-1,2,3,4-tetrahydroisoquinolin-6-yl)oxy)phenyl)-3,5-dioxo-2,3,4,5-tetrahydro-1,2,4-triazine-6-carbonitrile] | 1.47 µM | 0.1 µM |
| COCN1CCc2cc(Oc3c(Cl)cc(-n4nc(C#N)c(=O)[nH]c4=O)cc3Cl)ccc2C1=O [Example 3, 2-(3,5-dichloro-4-((2-(methoxymethyl)-1-oxo-1,2,3,4-tetrahydroisoquinolin-6-yl)oxy)phenyl)-3,5-dioxo-2,3,4,5-tetrahydro-1,2,4-triazine-6-carbonitrile] | 0.29 µM | 0.026 µM |
| CCOCN1CCc2cc(Oc3c(Cl)cc(-n4nc(C#N)c(=O)[nH]c4=O)cc3Cl)ccc2C1=O [Example 4, 2-(3,5-dichloro-4-((2-(ethoxymethyl)-1-oxo-1,2,3,4-tetrahydroisoquinolin-6-yl)oxy)phenyl)-3,5-dioxo-2,3,4,5-tetrahydro-1,2,4-triazine-6-carbonitrile] | 0.21 µM | 0.018 µM |
| CCN1CCc2cc(Oc3c(Cl)cc(-n4nc(C#N)c(=O)[nH]c4=O)cc3Cl)ccc2C1=O [Example 5, 2-(3,5-dichloro-4-((2-ethyl-1-oxo-1,2,3,4-tetrahydroisoquinolin-6-yl)oxy)phenyl)-3,5-dioxo-2,3,4,5-tetrahydro-1,2,4-triazine-6-carbonitrile] | 0.074 µM | 0.014 µM |
| N#Cc1nn(-c2cc(Cl)c(Oc3ccc4c(c3)CCCNC4=O)c(Cl)c2)c(=O)[nH]c1=O [Example 7, 2-(3,5-Dichloro-4-((1-oxo-2,3,4,5-tetrahydro-2H-benzo[c]azepin-7-yl)oxy)phenyl)-3,5-dioxo-2,3,4,5-tetrahydro-1,2,4-triazine-6-carbonitrile] | 0.95 µM | 0.092 µM |
| N#Cc1nn(-c2cc(Cl)c(Oc3ccc4c(c3)NC(=O)CC4)c(Cl)c2)c(=O)[nH]c1=O [Example 8, 2-(3,5-dichloro-4-((2-oxo-1,2,3,4-tetrahydroquinolin-7-yl)oxy)phenyl)-3,5-dioxo-2,3,4,5-tetrahydro-1,2,4-triazine-6-carbonitrile] | > 100 µM | > 10 µM |
| N#Cc1nn(-c2cc(Cl)c(Oc3ccc4c(c3)C(=O)NCC4)c(Cl)c2)c(=O)[nH]c1=O [Example 9, 2-(3,5-dichloro-4-((1-oxo-1,2,3,4-tetrahydroisoquinolin-7-yl)oxy)phenyl)-3,5-dioxo-2,3,4,5-tetrahydro-1,2,4-triazine-6-carbonitrile] | > 100 µM | > 10 µM |
| COCCN1CCc2cc(Oc3c(Cl)cc(-n4nc(C#N)c(=O)[nH]c4=O)cc3Cl)ccc2C1=O [Example 10, 2-(3,5-Dichloro-4-((2-(2-methoxyethyl)-1-oxo-1,2,3,4-tetrahydroisoquinolin-6-yl)oxy)phenyl)-3,5-dioxo-2,3,4,5-tetrahydro-1,2,4-triazine-6-carbonitrile] | 0.206 µM | 0.049 µM |
| N#Cc1nn(-c2cc(Cl)c(Oc3ccc4c(c3)CCN(CC3CCOCC3)C4=O)c(Cl)c2)c(=O)[nH]c1=O [Example 12, 2-(3,5-Dichloro-4-((1-oxo-2-((tetrahydro-2H-pyran-4-yl)methyl)-1,2,3,4-tetrahydroisoquinolin-6-yl)oxy)phenyl)-3,5-dioxo-2,3,4,5-tetrahydro-1,2,4-triazine-6-carbonitrile] | 0.451 µM | 0.021 µM |
| CC(C)OCN1CCc2cc(Oc3c(Cl)cc(-n4nc(C#N)c(=O)[nH]c4=O)cc3Cl)ccc2C1=O [Example 13, 2-(3,5-Dichloro-4-((2-(isopropoxymethyl)-1-oxo-1,2,3,4-tetrahydroisoquinolin-6-yl)oxy)phenyl)-3,5-dioxo-2,3,4,5-tetrahydro-1,2,4-triazine-6-carbonitrile] | 0.073 µM | 0.013 µM |
| N#Cc1nn(-c2cc(Cl)c(Oc3ccc4c(c3)CCN(COCC(F)(F)F)C4=O)c(Cl)c2)c(=O)[nH]c1=O [Example 14, 2-(3,5-Dichloro-4-((1-oxo-2-((2,2,2-trifluoroethoxy)methyl)-1,2,3,4-tetrahydroisoquinolin-6-yl)oxy)phenyl)-3,5-dioxo-2,3,4,5-tetrahydro-1,2,4-triazine-6-carbonitrile] | 0.226 µM | 0.03 µM |
| N#Cc1nn(-c2cc(Cl)c(Oc3ccc4c(c3)CCN(COCC(F)F)C4=O)c(Cl)c2)c(=O)[nH]c1=O [Example 15, 2-(3,5-dichloro-4-((1-oxo-2-((2,2-difluoroethoxy)methyl)-1,2,3,4-tetrahydroisoquinolin-6-yl)oxy)phenyl)-3,5-dioxo-2,3,4,5-tetrahydro-1,2,4-triazine-6-carbonitrile] | 0.176 µM | 0.024 µM |
| CCOC(C)N1CCc2cc(Oc3c(Cl)cc(-n4nc(C#N)c(=O)[nH]c4=O)cc3Cl)ccc2C1=O (stereo not shown) [Example 16, 2-(3,5-dichloro-4-((2-(1-ethoxyethyl)-1-oxo-1,2,3,4-tetrahydroisoquinolin-yl)oxy)phenyl)-3,5-dioxo-2,3,4,5-tetrahydro-1,2,4-triazine-6-carbonitrile] | 0.211 µM | 0.022 µM |
| O=C1NCCc2cc(Oc3c(Cl)cc(-n4ncc(=O)[nH]c4=O)cc3Cl)ccc21 [Example 17, 2-(3,5-Dichloro-4-((1-oxo-1,2,3,4-tetrahydroisoquinolin-6-yl)oxy)phenyl)-1,2,4-triazine-3,5(2H,4H)-dione] | 0.311 µM | 0.034 µM |
| N#Cc1nn(-c2cc(Cl)c(Oc3ccc4c(c3)CCN(Cc3ccccc3)C4=O)c(Cl)c2)c(=O)[nH]c1=O [Example 18, 2-(4-((2-Benzyl-1-oxo-1,2,3,4-tetrahydroisoquinolin-6-yl)oxy)-3,5-dichlorophenyl)-3,5-dioxo-2,3,4,5-tetrahydro-1,2,4-triazine-6-carbonitrile] | > 100 µM | 0.192 µM |
| N#Cc1nn(-c2cc(Cl)c(Oc3ccc4c(=O)[nH]ccc4c3)c(Cl)c2)c(=O)[nH]c1=O [Example 19, 2-(3,5-Dichloro-4-((1-oxo-1,2-dihydroisoquinolin-6-yl)oxy)phenyl)-3,5-dioxo-2,3,4,5-tetrahydro-1,2,4-triazine-6-carbonitrile] | > 100 µM | 0.501 µM |
| N#Cc1nn(-c2cc(Cl)c(Oc3ccc4c(c3)CCN(Cc3ccc(F)cc3)C4=O)c(Cl)c2)c(=O)[nH]c1=O [Example 20d, 2-(3,5-dichloro-4-((2-(4-fluorobenzyl)-1-oxo-1,2,3,4-tetrahydroisoquinolin-6-yl)oxy)phenyl)-3,5-dioxo-2,3,4,5-tetrahydro-1,2,4-triazine-6-carbonitrile] | > 100 µM | 0.534 µM |
| Cc1ccc(CN2CCc3cc(Oc4c(Cl)cc(-n5nc(C#N)c(=O)[nH]c5=O)cc4Cl)ccc3C2=O)cc1 [Example 21d, 2-(3,5-dichloro-4-((2-(4-methylbenzyl)-1-oxo-1,2,3,4-tetrahydroisoquinolin-6-yl)oxy)phenyl)-3,5-dioxo-2,3,4,5-tetrahydro-1,2,4-triazine-6-carbonitrile] | > 100 µM | 0.368 µM |
| O=C1c2ccc(Oc3c(Cl)cc(-n4ncc(=O)[nH]c4=O)cc3Cl)cc2CCN1Cc1ccccc1 [Example 22, 2-(4-((2-benzyl-1-oxo-1,2,3,4-tetrahydroisoquinolin-6-yl)oxy)-3,5-dichlorophenyl)-1,2,4-triazine-3,5(2H,4H)-dione] | 0.156 µM | 0.011 µM |
| O=C1c2ccc(Oc3c(Cl)cc(-n4ncc(=O)[nH]c4=O)cc3Cl)cc2CCN1CC1CCOCC1 [Example 23, 2-(3,5-dichloro-4-((1-oxo-2-((tetrahydro-2H-pyran-4-yl)methyl)-1,2,3,4-tetrahydroisoquinolin-6-yl)oxy)phenyl)-1,2,4-triazine-3,5(2H,4H)-dione] | 0.386 µM | 0.013 µM |
| O=C1c2ccc(Oc3c(Cl)cc(-n4ncc(=O)[nH]c4=O)cc3Cl)cc2CCN1Cc1cccnn1 [Example 25, 2-(3,5-dichloro-4-((1-oxo-2-(pyridazin-3-ylmethyl)-1,2,3,4-tetrahydroisoquinolin-6-yl)oxy)phenyl)-1,2,4-triazine-3,5(2H,4H)-dione] | > 100 µM | 0.241 µM |
| Cc1cc(-n2nc(C#N)c(=O)[nH]c2=O)cc(C)c1Oc1ccc2c(c1)CCNC2=O [Example 26, 2-(3,5-dimethyl-4-((1-oxo-1,2,3,4-tetrahydroisoquinolin-6-yl)oxy)phenyl)-3,5-dioxo-2,3,4,5-tetrahydro-1,2,4-triazine-6-carbonitrile] | 7.04 µM | 0.476 µM |
